The results in this text go back to US20240401144A2, “PRIMER-PROBE COMPOSITION, KIT, AND DETECTION METHOD” (ASCENTAWITS PHARMACEUTICALS, LTD., priority 2021, published 2024).

Where only a bound is given, the exact number is not on record here.

Assay [1] relates to NCI-H2228 NSCLC cell line. In words: Ex vivo proliferation assay, 72 h exposure. The format is cell-based. To be noted: Homo sapiens; NCI-H2228, 72 h of exposure; read-out: 3424 IC50. Here is the method:
(§1) Exponentially growing cells were inoculated. After 24 h, the test compound OBI-3424 was added. After addition of the test compound OBI-3424, plates were incubated in a standard tissue incubator at 37° C. for the indicated hours. At the end of the experiment, viable cells were detected using the CellTiter Glo (CTG) assay kit or AlamarBlue. Drug concentrations (IC50) resulting in 50% growth inhibition relative to untreated control were calculated using XLfit (IDBS, Boston, MA) or Prism 6 (GraphPad, San Diego, CA).
(§2) After exposing the hepatocellular carcinoma cell lines to compound OBI-3424 for 96 h and exposing the NSCLC cell lines to compound OBI-3424 for 72 h, the IC50 value was determined by ex vivo proliferation assay, and the expression of AKR1C3 protein in hepatocellular carcinoma cell lines was determined by Western blotting (tubulin was used as loading control). The expression data of AKR1C3 RNA in the hepatocellular carcinoma cell lines and in the NSCLC cell lines were from CrownBio database (https://db.crownbio.com/Crownbio/OncoExpress_Login.aspx).

Another assay deals with NCI-H23 NSCLC cell line. In words: Ex vivo proliferation assay, 72 h exposure. The format is cell-based. Particulars: Homo sapiens; NCI-H23, 72 h of exposure; read-out: 3424 IC50. Here is the method:
as §1, §2

Assay [2] deals with NCI-H1792 NSCLC cell line. In words: Ex vivo proliferation assay, 72 h exposure. The format is cell-based. To be noted: Homo sapiens; NCI-H1792, 72 h of exposure; read-out: 3424 IC50. The procedure:
as §1, §2

In another assay the test system is NCI-H522 NSCLC cell line. In words: Ex vivo proliferation assay, 72 h exposure. The format is cell-based. Particulars: Homo sapiens; NCI-H522, 72 h of exposure; read-out: 3424 IC50. Here is the method: as §1, §2
The subject of assay [3] is NCI-H1563 NSCLC cell line. In words: Ex vivo proliferation assay, 72 h exposure. The format is cell-based. Particulars: Homo sapiens; NCI-H1563, 72 h of exposure; read-out: 3424 IC50. Here is the method:
as §1, §2

The next assay concerns NCIH2106 NSCLC cell line. Put plainly: Ex vivo proliferation assay, 72 h exposure. The format is cell-based. Particulars: Homo sapiens; NCIH2106, 72 h of exposure; read-out: 3424 IC50. Here is the method: as §1, §2
The subject of the next assay is NCIH1755 NSCLC cell line. Put plainly: Ex vivo proliferation assay, 72 h exposure. In kind it is cell-based. Particulars: Homo sapiens, NCI-H1755; NCIH1755, 72 h of exposure; read-out: 3424 IC50. The procedure:
as §1, §2

Assay [4] concerns NCI-H2110 NSCLC cell line. Put plainly: Ex vivo proliferation assay, 72 h exposure. The format is cell-based. To be noted: Homo sapiens; NCI-H2110, 72 h of exposure; read-out: 3424 IC50. Here is the method: as §1, §2
Assay [5] deals with NCI-H1944 NSCLC cell line. Put plainly: Ex vivo proliferation assay, 72 h exposure. To be noted: Homo sapiens; NCI-H1944, 72 h of exposure; read-out: 3424 IC50. In kind it is cell-based. The procedure:
as §1, §2

For the next assay, the system named is ALL cell lines. Put plainly: Ex vivo cytotoxicity in ALL cell lines (summary). In kind it is cell-based. Particulars: Homo sapiens. The procedure:
(§3) Leukemia cell lines were suspended in RPMI medium supplemented with FBS (Biosera), while ALL PDX cells were cultured in QBSF medium (Quality Biological Inc.,) supplemented with Flt-3 ligand (20 ng/ml, BioNovus Life Sciences) or IL7 (10-20 ng/ml, Jomar Life Research). Cells were inoculated according to the optimal cell density and incubated for 3h or overnight (37° C., 5% CO2). PDX cells and leukemia cell lines were treated with OBI-3424 ([…]) or medium control for 48 or 72 h, respectively. Viability was determined using Alamar Blue reduction assay or Cell Titer-Glo Luminescent Cell Viability Assay (Promega). The half-maximal inhibitory concentration (IC50) was used to calculate the interpolation of nonlinear regression curves by GraphPad Prism 7 software.
The expression levels of AKR1C3 protein was determined by Western blot analysis. The ex vivo cytotoxicity of OBI-3424 was determined using CellTiter-Glo assay and calculated as 50% maximum inhibitory concentration (IC50).

Assay [6] has as its system cell lines derived from T-ALL with high AKR1C3 expression. Put plainly: Ex vivo cytotoxicity in leukemia cell lines (summary). In kind it is cell-based, human. Here is the method: as §3
In order to evaluate the potential anti-leukemia activity of OBI-3424, ex vivo cytotoxicity assays were performed on a variety of leukemia cell lines. […] The difference in IC50 values between cell lines with high/medium AKR1C3 expression and low expression was statistically significant (P=0.0016).

As a reminder, the IC50 is the concentration needed to halve the response being measured. On to `C[C@H](OP(=O)(N1CC1)N1CC1)c1ccc([N+](=O)[O-])c(Oc2cccc(C(=O)N(C)C)c2)c1` [OBI-3424], for which the IC50 is 0.21 nM in assay [1]; above 1000 nM in the assay on NCI-H23 NSCLC cell line; 4.5 nM in assay [2]; above 1000 nM with NCI-H522 NSCLC cell line; 2.5 nM in [3]; above 1000 nM in the assay with NCIH2106 NSCLC cell line. Moreover, the 50% inhibitory concentration (IC50) in the assay with NCIH1755 NSCLC cell line was 8.2 nM; in assay [4], 1.1 nM; in [5] it was 2.3 nM; in the assay on ALL cell lines (6 types of cell lines expressing high (strong) levels of AKR1C3), 3 to 30 nM; in the assay on ALL cell lines (cell lines with medium AKR1C3 expression levels) it was 3 to 84 nM. For the same compound, the IC50 values entry in [6] is “low nmol/L range”.
